Measured values as given in patent US12590130B2, “Bipartite molecules and uses thereof in treating diseases associated with abnormal protein aggregates” (ACADEMIA SINICA, priority 2014, dated 2026).

Tests used:
APP×PS1 transgenic mice [1] = assay: Cytometric bead array for IL-6 and IL-1β in brain of APP×PS1 mice; type: in vivo, mouse; details: cortex, 8 month-old Tg mice
Procedure: (§1) APP×PS1 transgenic mice (B6C3-Tg (APPswe,PSEN1dE9) 85Dbo/Mmjax, purchased from Jackson Laboratories (USA), were bred and genotyped following the vendor's protocols. Borchelt et al., Neuron (1996) 17:1005-13; and Jankowsky et al., Biomol Eng (2001) 17:157-65. The mice had access to food and water ad libitum and were kept on a 12:12 h light-dark cycle. PEI and R8A β 25-35-PEI were dissolved in 100 mM NaH2PO4/138 mM KCl (pH 5) to a final concentration of 400 μM. For intranasal administration, 2.5 μL PEI or R8-A β (25-35)-PEI was given to each nostril of one mouse when they were […] for six days/week until they were 8 months of age. Mice were then tested with a Morris water maze. Treatment were resumed after a 6-week break for the water maze test, and continued until the mice were 12 months of age.
A cytometric bead array (CBA, mouse inflammation kit; BD Biosciences) was used to quantitatively measure cytokine expression levels in the control and treated mouse brain tissue lysates. […] This method quantifies soluble particles, in this case, cytokines, using a fluorescence-based detection mechanism. The beads, coated with the desired cytokine, IL-6 and IL-1B, reacted with the test lysates and standards, to which fluorescence dyes were then added. The assay was performed according to the manufacturer's instructions and analyzed on the FACS Calibur (Becton Dickinson). […]

APP×PS1 transgenic mice [2] = assay: Thioflavin S staining of amyloid plaques in APP×PS1 mice; type: in vivo, mouse; details: vs PEI
APP×PS1 transgenic mice [3] = assay: Morris water maze in APP×PS1 transgenic mice; type: in vivo, mouse; details: vs PEI
From the text: FIG. 12. R8-Aβ(25-35)-PEI improved memory as measured by the Morris water maze assay. Panel A: Plot of the escape latency period of wild type (WT) and APP×PS1 transgenic (Tg) mice of 8 months of age treated with either PEI or R8-Aβ(25-35) peptide from the age of 4 months to 8 months. […] Panel B: Percentage of time of WT or Tg mice treated as indicated spent in swimming in the target quadrant where the hidden platform used to be. The times of the indicated mice crossing the target quadrant. […] Panel C: The percentage of time of the WT or Tg mice as indicated crossing the target quadrant. Ten mice per group were used in this study. The statistics were performed with two way ANOVA with Fisher's LSD posthoc analysis. N=10/group *<0.05; ***<0.0005; ****<0.0001
as §1
The maze was made of white opaque plastic with a diameter of 120 cm and contained 40 cm high walls. It was filled with milk/water at 25° C. […] The path length and escape latencies were recorded (n=10 per group). Acquisition data, such as time taken to reach the escape platform and path length were analyzed by two-way repeated measures ANOVA. […] The platform was removed from the maze and animals were allowed to swim freely for 90 s and the swimming path was recorded and analyzed.

109QmHtt aggregates = assay: Co-localization of TAMRA-labeled peptide with 109QmHtt aggregates in Neuro2a cells; type: cell-based; details: Neuro2a cells expressing 109QmHtt
Chain of 109QmHtt aggregates (P42858 with tags, fused parts or gaps limits assumed): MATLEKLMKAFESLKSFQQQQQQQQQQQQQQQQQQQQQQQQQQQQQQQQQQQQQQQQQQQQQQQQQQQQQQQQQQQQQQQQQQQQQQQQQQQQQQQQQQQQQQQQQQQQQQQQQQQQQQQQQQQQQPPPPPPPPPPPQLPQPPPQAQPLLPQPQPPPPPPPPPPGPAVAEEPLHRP
Procedure: FIG. 3. Diagrams showing the co-localization of tested bipartite peptides with the 109QmHtt aggregates. Panel A: Structure of TAMRA-labeled 8R10Q used in this study. Panel B: Epifluorescence micrographs of Neuro2a cells expressing 109QmHtt treated with TAMRA-8R10Q (8R10Q) at various time points. Note the co-localization of 8R10Q and 109QmHttGFP aggregates (GFP) from 8-24 hours (arrows). Scale bar: 10 μm. Panel C: TIRF micrographs of the Neuro2a expressing 109QmHtt treated with water or peptides as indicated at various time points. Note the decrease in aggregate size in 8R10Q and 8R15Q-treated cells. Panel D: Quantitation of the size of individual aggregates in Neuro2a at 8 hours (left) and 24 hours (right) after peptide treatment. […] Panel E: Quantitation of the number of aggregates in 20 Neuro2a cells at 12 hours (left) and 24 hours (right) after peptide treatment. Both the 8R10Q and 8R15Q increased the number of aggregates. Statistics performed with one way ANOVA. **p<0.01; ***p<0.001.
The ability of 8R10Q to bind to the 109QmHtt was examined by determining its co-localization with the 109QmHtt aggregates. The 8R10Q peptide was labeled with carboxytetramethylrhodamine (TAMRA) dye (FIG. 3, panel A), and added into Neuro2a cells expressing 25QHtt or 109QmHtt.

[4] = Solubility of therapeutic peptides; type: physicochemical; details: DMEM/10% FBS
Procedure: In this study, the rational design was tested for HD. Several bipartite therapeutic peptides containing 8 consecutive arginines (8R) attached to a stretch of consecutive glutamines (polyQ) were synthesized and their biological activity of decreasing the aggregation propensity of the mHtt protein was investigated. The length of the polyQ of these bipartite peptides was 5 (8R5Q), 10 (8R10Q), 15 (8R15Q) or 20 (8R20Q) (Table 2).

Substance	level of IL-1β (APP×PS1 transgenic mice [1])	level of IL-6 (APP×PS1 transgenic mice [1])	number of plaques (APP×PS1 transgenic mice [2]; cortex and hippocampus, 8 month-old)	percentage of the plaque areas (APP×PS1 transgenic mice [2]; cortex and hippocampus)	total area of amyloid plaques (APP×PS1 transgenic mice [2]; cortex and hippocampus)	average size of individual plaques (APP×PS1 transgenic mice [2])	escape latency / learning to find hidden platform (APP×PS1 transgenic mice [3]; Tg mice 8 months of age, intranasal)	time spent in the target quadrant (probe test) (APP×PS1 transgenic mice [3]; Tg mice)	learning curve of finding the hidden platform (APP×PS1 transgenic mice [3]; wild-type mice)	co-localization with 109QmHtt aggregates (109QmHtt aggregates)	Solubility (DMEM/10% FBS) [4]
RRRRRRRRGSNKGAIIGLM-PEI (not fully specified; PEI conjugate) [R8-Aβ(25-35)-PEI]	effectively decreased	effectively decreased	significantly reduced	significantly decreased	correspondingly decreased	failed to reach statistical significance	significant shortening of the latency	increased the time of Tg mice in the target quadrant	no clear difference in the learning curve		
TAMRA-NH-(R)8-W-D-(Q)10-CONH2 ({TAMRA}-RRRRRRRRWDQQQQQQQQQQ-NH2) [TAMRA-8R10Q]										co-localized with the aggregates	Soluble
